The values that follow are results of earlier work, collected in patent US20030176652A1, “Human and mouse beta-defensins, antimicrobial peptides” (priority 2001, published 2003).

Data set [1] deals with cells expressing the human CCR6.
A further data set has as its system Campylobacter pylori. Also on record: MIC50: unit not given beside the values.
The test system of the next data set is Staphylococcus hominis. Further details: unit not given beside the values.
The next data set concerns Campylobacter jejuni. Also on record: MIC90: unit not given beside the values.
In the next data set the test system is Haemophilus ducreyi. Also on record: unit not given beside the values.
A further data set has as its system Streptococcus pyogenes. Further details: unit not given beside the values.
The next data set deals with Enterococcus spp. Also on record: MIC50 / MIC90: unit not given beside the values.
Data set [2] concerns Staphylococcus aureus. Also on record: MIC50 / MIC90: unit not given beside the values.
The test system of the next data set is Neisseria meningitidis. Further details: MIC50 / MIC90: unit not given beside the values.
Data set [3] deals with Haemophilus parainfluenzae. Also on record: MIC50 / MIC90: unit not given beside the values.
In data set [4] the test system is Branhamella (Moraxella) catarrhalis. The settings on record: Branhamella (Moraxella) catarrhalis (β-lactamase producer).
The subject of the next data set is Haemophilus influenzae. Further details: MIC50 / MIC90: unit not given beside the values.
The subject of data set [5] is Staphylococcus haemolyticus.
For data set [6], the system named is Bordetella bronchiseptica. Also on record: MIC50 / MIC90: unit not given beside the values.
In the next data set the test system is Streptococcus agalactiae. Also on record: MIC50 / MIC90: unit not given beside the values.
The subject of the next data set is Bacteroides fragilis. Also on record: MIC50 / MIC90: unit not given beside the values.
The subject of a further data set is Bacillus spp. Also on record: MIC90: unit not given beside the values.
Data set [7] has as its system Staphylococcus epidermidis. Also on record: unit not given beside the values.
Another data set has as its system Listeria monocytogenes. Further details: unit not given beside the values.
Another data set concerns Neisseria gonorrhoeae. Also on record: MIC90: unit not given beside the values.
For another data set, the system named is Streptococcus spp. Also on record: unit not given beside the values.
For a further data set, the system named is Nocardia asteroides. Also on record: MIC50 / MIC90: unit not given beside the values.
Data set [8] deals with Staphylococcus aureus. The following applies: physiological salt concentrations.
Another data set relates to Mycoplasma hominis. Also on record: MIC50 / MIC90: unit not given beside the values.
The mark [9] stands for this setting: Staphylococcus aureus (methicillin resistant).
[10] abbreviates: Staphylococcus aureus (penicillin resistant).
The mark [11] stands for this setting: Staphylococcus aureus (penicillin susceptible).
The mark [12] stands for this setting: Haemophilus influenzae (non β-lactamase producer).
The mark [13] stands for this setting: Haemophilus influenzae (penicillin resistant).
[14] abbreviates: Haemophilus influenzae (penicillin susceptible).
Setting [15] is: Haemophilus influenzae (β-lactamase producer).
[16] abbreviates: Neisseria gonorrhoeae (non β-lactamase producer).

“And” between values parts separate entries of the source, which are not always exact repeats. Equal values may be shown once. Read-outs that look alike come from different tables or passages of the source. Where no end group is shown, it is not given here.

“HBD-2: HBD-2 protein encoded by the DEFB2 gene (GIGDPVTCLKSGAICHPVFCPRRYKQIGTCGLPGTKCCKKP; UniProt O15263 24-64, looked up)”: the “chemotaxis of cells expressing the human CCR6” value in data set [1] is given as “selectively chemotactic”. In addition, in the data set with mast cells, the “histamine release from mast cells” value is listed as “stimulates mast cells to release histamine”.

With “CCL20: the only reported chemokine ligand for CCR6”, the “chemokine activity relative to HBD-1 and HBD-2” value in data set [1] (greater than that of HBD-1 and HBD-2) is listed as “approximately 10 fold”.

For “HBD-1: known human β-defensin peptide, product of DEFB1 (DHYNCVSSGGQCLYSACPIFTKIQGTCYRGKAKCCK; not fully specified (bridges); cysteine pairing not given here; UniProt P60022 33-68, looked up)”, the “chemotaxis of cells expressing the human CCR6” value in data set [1] is listed as “selectively chemotactic”.

`CC[C@H]1OC(=O)[C@H](C)[C@@H](O[C@H]2C[C@@](C)(OC)[C@@H](O)[C@H](C)O2)[C@H](C)[C@@H](O[C@@H]2O[C@H](C)C[C@H](N(C)C)[C@H]2O)[C@](C)(O)C[C@@H](C)C(=O)[C@H](C)[C@@H](O)[C@]1(C)O` [ERYTHROMYCIN, erythromycin]: the MIC50 is 0.5 in the data set on Campylobacter pylori; 64 in the data set on Staphylococcus hominis; 0.004 with Haemophilus ducreyi; 1 in the data set with Enterococcus faecium; 0.06 and 0.03 in the data set on Streptococcus pyogenes; 2 with Enterococcus spp.. Also, the MIC50 was 0.03 in the data set with Borrelia burgdorferi; 0.5 in the data set with Staphylococcus aureus [2] (Staphylococcus aureus); 64 and 32 in the data set on Staphylococcus aureus [2] (setting [9]); 0.5 with Staphylococcus aureus [2] (Staphylococcus aureus (methicillin susceptible)); 0.5 in the data set on Staphylococcus aureus [2] (setting [11]); 1 with Neisseria meningitidis. The MIC50 is 2 in data set [3]; 2 and 1 with Haemophilus influenzae (Haemophilus influenzae); 2 and 4 with Haemophilus influenzae (setting [12]); 8 with Haemophilus influenzae (setting [13]); 8 in the data set with Haemophilus influenzae (setting [14]); 4 and 2 in the data set with Haemophilus influenzae (setting [15]). The MIC50 in [5] was 64; in [6] it was 8; in the data set with Streptococcus agalactiae, 0.03; with Bacteroides fragilis, 1; in data set [7] it was 64; in the data set with Listeria monocytogenes, 0.5. The MIC50 was 0.06 and 0.03 with Streptococcus pneumoniae; 2 with Corynebacterium JK; 0.03 in the data set with Streptococcus spp.; 8 in the data set with Nocardia asteroides. Also, the Range in the data set with Campylobacter pylori is given as 0.25-16; in the data set with Campylobacter jejuni it was 0.5-8; with Enterococcus faecium, 0.06-64; in the data set with Enterococcus spp. it was 0.06-32; in the data set on Staphylococcus aureus [2] (setting [10]), 0.25-32; with Staphylococcus aureus [2] (setting [11]) it was 0.06-32. Besides, the Range is 0.5-8 in the data set on Neisseria meningitidis; 0.5-8 in data set [3]; 0.06-1 and 0.03-0.25 and 0.06-8 in data set [4]; 0.5-8 and 0.25-16 with Haemophilus influenzae (Haemophilus influenzae); 0.06-8 with Haemophilus influenzae (setting [12]); 8-16 in the data set on Haemophilus influenzae (setting [13]). Further, the Range in the data set with Haemophilus influenzae (setting [14]) is 0.25-16; in data set [6] it was 4-32; in the data set with Streptococcus agalactiae, 0.03-0.25 and 0.015-0.06; in the data set on Bacteroides fragilis, 0.25-16; in the data set on Bacillus spp. it was 0.03-2; with Neisseria gonorrhoeae (Neisseria gonorrhoeae), 0.0075-8. Besides, the Range is 0.015-4 and 0.03-2 with Neisseria gonorrhoeae (setting [16]); 0.03-0.25 and 0.015-0.06 and 0.015-0.25 in the data set on Streptococcus pneumoniae; 0.25-8 in the data set on Nocardia asteroides. Also, the MIC90 is 64 in the data set with Staphylococcus hominis; 4 and 2 in the data set with Campylobacter jejuni; 0.06 in the data set on Haemophilus ducreyi; 64 in the data set on Enterococcus faecium; 32 in the data set with Ureaplasma urealyticum; 32 in the data set with Enterococcus spp.. In addition, the MIC90 with Borrelia burgdorferi is 0.06; with Staphylococcus aureus [2] (setting [9]), 64 and 32; in the data set with Staphylococcus aureus [2] (setting [10]), 32; in the data set on Staphylococcus aureus [2] (setting [11]) it was 0.5; in the data set with Neisseria meningitidis, 8; in data set [3], 4. Also, the MIC90 with Haemophilus influenzae (Haemophilus influenzae) is 2 and 4; in the data set on Haemophilus influenzae (setting [12]), 4 and 8; with Haemophilus influenzae (setting [13]), 16; in the data set with Haemophilus influenzae (setting [14]), 16; in the data set on Haemophilus influenzae (setting [15]), 8 and 4; in data set [5] it was 64. The MIC90 in data set [6] is listed as 32; with Streptococcus agalactiae, 0.03; in the data set with Bacteroides fragilis, 8; with Bacillus spp., 2; in [7], 64; in the data set with Neisseria gonorrhoeae (Neisseria gonorrhoeae) it was 1. The MIC90 in the data set on Neisseria gonorrhoeae (setting [16]) is 2 and 1; with Neisseria gonorrhoeae (Neisseria gonorrhoeae (β-lactamase producer)), 2 and 4; in the data set on Streptococcus pneumoniae, 0.03 and 0.06; in the data set with Corynebacterium JK, 64; in the data set with Nocardia asteroides, 8.

Regarding “DEFB3: protein encoded by the known human β-defensin gene DEFB3 (GIINTLQKYYCRVRGGRCAVLSCLPKEEQIGKCSTRGRKCCRRKK; not fully specified (bridges); cysteine pairing not given here; UniProt P81534 23-67, looked up)”, the “salt sensitivity of bactericidal activity against Staphylococcus aureus” value in the data set on Staphylococcus aureus [8] is “not salt-sensitive”.

With `CCC[C@@H]1C[C@@H](C(=O)N[C@@H]([C@H]2O[C@H](SC)[C@H](O)[C@@H](O)[C@H]2O)[C@@H](C)O)N(C)C1` [LINCOMYCIN, lincomycin], the MIC50 in the data set with Ureaplasma urealyticum is listed as 128; in the data set on Mycoplasma hominis it was 2; in the data set on Staphylococcus aureus [2] (Staphylococcus aureus), 1; in the data set with Mycoplasma pneumoniae, 8. In addition, the MIC90 in the data set on Ureaplasma urealyticum is 128; in the data set on Mycoplasma hominis, 4; in the data set on Staphylococcus aureus [2] (Staphylococcus aureus) it was 1; in the data set with Mycoplasma pneumoniae, 32. Further, the Range in the data set with Ureaplasma urealyticum is reported as 64-128; in the data set on Mycoplasma hominis, 0.5-16; in the data set on Staphylococcus aureus [2] (Staphylococcus aureus), 0.5-512; in the data set on Mycoplasma pneumoniae, 2-32.
